Assay results: patent publication US7642245B2, “Antibacterial compounds having a (pyrrole carboxamide)-(benzamide)-(imidazole carboxamide) motif” (Oscient Pharmaceuticals Corporation, priority 2002, dated 2010)

Columns and labels:
[1] = tested on: M. catarrhalis (ATCC 25238); assay: MIC, NCCLS broth microdilution; type: cell-based, Moraxella (now Branhamella) catarrhalis; settings: H = M. catarrhalis (ATCC 25238)
Summary of the method: (§1)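 Antibacterial MICs against B. cereus, methicillin-resistant S. aureus and M. catarrhalis were measured by the NCCLS reference broth microdilution method. Yeast testing applied the Manual of Clinical Microbiology antifungal protocol.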

C. albicans ATCC 38247 = assay: MIC, antifungal assay; type: cell-based, Candida albicans; settings: F = C. albicans ATCC 38247
Summary of the method: as §1

E. coli ATCC 25922 = assay: MIC, NCCLS broth microdilution; type: cell-based, Escherichia coli; settings: G = E. coli ATCC 25922
Summary of the method: (§2)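 Broth microdilution, NCCLS M7-A4/M11-A4/M27-T guidelines; read-out MIC. MRSA strain for S. aureus. Candida: Manual of Clinical Microbiology method.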

E. faecalis ATCC 29212 = assay: MIC, NCCLS broth microdilution; type: cell-based, Enterococcus faecalis; settings: C = E. faecalis ATCC 29212
Summary of the method: as §2

B. cereus ATCC 11778 = assay: MIC, NCCLS broth microdilution; type: cell-based, Bacillus cereus; settings: D = B. cereus ATCC 11778
Summary of the method: as §1

S. aureus ATCC 13709 = assay: MIC, NCCLS broth microdilution; type: cell-based, Staphylococcus aureus; settings: A = S. aureus ATCC 13709 (MSSA)
Summary of the method: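 MIC values come from microtiter-plate broth microdilution run to NCCLS standards (M7-A4, M11-A4, M27-T). For C. albicans ATCC 38247, the antifungal procedure of the 1995 Manual of Clinical Microbiology was used instead.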

S. aureus ATCC 27660 = assay: MIC, NCCLS broth microdilution; type: cell-based, Staphylococcus aureus; settings: B = S. aureus ATCC 27660 (MRSA)
Summary of the method: as §1

S. pneumoniae ATCC 49619 = assay: MIC, NCCLS broth microdilution; type: cell-based, Streptococcus pneumoniae; settings: E = S. pneumoniae ATCC 49619
Summary of the method: as §2

Measured: Minimum Inhibitory Concentration (MIC)

Cn1cc(NC(=O)c2cc3ccccc3cn2)cc1C(=O)Nc1ccc(C(=O)Nc2cn(C)c(C(=O)NCCN3CCN(CCOC(=O)CNC(=O)OC(C)(C)C)CC3)n2)cc1 [Compound A-61]
>32 µg/mL: C. albicans ATCC 38247 | E. coli ATCC 25922
+++ (MIC ≦ 4 μg/mL): [1] | E. faecalis ATCC 29212 | B. cereus ATCC 11778 | S. aureus ATCC 13709 | S. aureus ATCC 27660 | S. pneumoniae ATCC 49619

Cn1cc(NC(=O)c2cc3ccccc3cn2)cc1C(=O)Nc1ccc(C(=O)Nc2cn(C)c(C(=O)NCCN3CCN(CCOC(=O)CN)CC3)n2)cc1 [Compound A-62]
>32 µg/mL: C. albicans ATCC 38247 | E. coli ATCC 25922
+++ (MIC ≦ 4 μg/mL): [1] | E. faecalis ATCC 29212 | B. cereus ATCC 11778 | S. aureus ATCC 13709 | S. aureus ATCC 27660 | S. pneumoniae ATCC 49619

CC(O)CN1CCN(CCNC(=O)c2nc(NC(=O)c3ccc(NC(=O)c4cc(NC(=O)c5cc6ccccc6cn5)cn4C)cc3)cn2C)CC1 (stereo not shown) [Compound A-63]
>32 µg/mL: C. albicans ATCC 38247
+++ (MIC ≦ 4 μg/mL): [1] | E. coli ATCC 25922 | E. faecalis ATCC 29212 | B. cereus ATCC 11778 | S. aureus ATCC 13709 | S. aureus ATCC 27660 | S. pneumoniae ATCC 49619

Cn1cc(NC(=O)c2cc3ccccc3cn2)cc1C(=O)Nc1ccc(C(=O)Nc2cn(C)c(C(=O)NCCN3CCN(C(=O)CNC(=O)OC(C)(C)C)CC3)n2)cc1 [Compound A-64]
>32 µg/mL: C. albicans ATCC 38247 | E. coli ATCC 25922
+++ (MIC ≦ 4 μg/mL): E. faecalis ATCC 29212 | B. cereus ATCC 11778 | S. aureus ATCC 13709 | S. aureus ATCC 27660 | S. pneumoniae ATCC 49619
++ (4 < MIC < 12 μg/mL): [1]

Cn1cc(NC(=O)c2cc3ccccc3cn2)cc1C(=O)Nc1ccc(C(=O)Nc2cn(C)c(C(=O)NCCN3CCN(C(=O)CN)CC3)n2)cc1 [Compound A-65]
+++ (MIC ≦ 4 μg/mL): [1] | E. faecalis ATCC 29212 | B. cereus ATCC 11778 | S. aureus ATCC 13709 | S. aureus ATCC 27660 | S. pneumoniae ATCC 49619
>32 µg/mL: E. coli ATCC 25922
++ (4 < MIC < 12 μg/mL): C. albicans ATCC 38247
